# Like-named read-outs stand apart in the source and are kept apart here.
# Experiments:
# Assay in all cases: Post-emergence action against weeds, greenhouse pot test, visual scoring
# Format in all cases: in vivo
# Avena fatua (AVEFA) = details: for inhibition at 8 g/ha: Avena fatua, post-emergence, read-out: % activity found; for (7) activity found: AVEFA, 21 DAT
# Experimental: (§1) Seeds or rhizome pieces of mono- and dicotyledonous harmful and useful plants were placed in peat pots (diameter 4 cm) filled with sandy loam and then covered with soil. The pots were kept in a greenhouse under optimum conditions. In addition, harmful plants encountered in paddy rice cultivation were cultivated in pots with a water level 2 cm above the soil surface.
# (§2) About three weeks after the start of the cultivation, the test plants were treated at the 2- to 3-leaf stage. The herbicides, formulated as powder or liquid concentrates, were, either alone or in the combinations according to the invention, sprayed in various dosages on to the green parts of the plants using an application rate of 600 l of water/ha (converted). For further cultivation of the plants, the pots were then again kept under optimum conditions in a greenhouse.
# (§3) The visual scoring of the herbicidal effects was carried out in intervals up to 21 days after the treatment. Scoring was carried out in percent in comparison to the untreated control plants. 0%=no herbicidal activity, 100%=complete herbicidal activity=complete kill.
# (§4) The percentages from the treatments with the herbicides alone (=individual application) and with the combinations according to the invention (=mixtures) were employed to calculate interactions using the method of Colby.
# (§5) • A, B=activity of components A and B in percent at a dosage of a and b g of ai/ha (=gramm of active substance per hectare), respectively. • E=expected value in % at a dosage of a+b g of ai/ha.
# Zea mays (ZEAMX) = details: for inhibition at 24 g/ha: Zea mays, post-emergence, read-out: % activity found; for (7) activity found: ZEAMX
# Experimental: as §1, §2, §3, §4, §5
# [1] = tested on: Lolium multiflorum (LOLMU); details: for (7) activity found: LOLMU, 10 DAT
# Experimental: as §1, §2, §3, §4, §5
# [2] = tested on: Fallopia (ex Polygonum) convolvulus (POLCO); details: for (7) activity found: POLCO, 21 DAT
# Experimental: as §1, §2, §3, §4, §5
# [3] = tested on: Matricaria inodora (MATIN); details: for (7) activity found: MATIN, 21 DAT
# Experimental: as §1, §2, §3, §4, §5
# Setaria viridis (SETVI) = details: 504 h, read-out: % activity found
# Experimental: as §1, §2, §3
# (§6) The percentages from the treatments with the herbicides alone (=individual application) and with the combinations according to the invention (=mixtures) were employed to calculate interactions using the method of Colby. When the observed efficacies of the mixtures exceed the formal sum of the values of the tests with individual applications, they also exceed the expected value according to Colby, which is calculated using the formula below (cf. S. R. Colby; in Weeds 15 (1967) pp. 20 to 22):
# as §5
# Oryza sativa (ORYSA) = details: read-out: % activity found
# Experimental: as §1, §2, §3, §6, §5
# [4] = tested on: Alopecurus myosuroides (ALOMY); details: read-out: % activity found
# Experimental: as §1, §2, §3, §6, §5
# [5] = tested on: Pharbitis purpurea (PHBPU); details: 21 DAT
# Experimental: as §1, §2, §3, §4, §5
# Stellaria media (STEME) = details: 10 DAT
# Experimental: as §1, §2, §3, §4, §5
# [6] = tested on: Triticum aestivum (TRZAS)
# Experimental: as §1, §2, §3, §4, §5
# Viola tricolor (VIOTR) = details: rate (6) B7-4 40
# Experimental: as §1, §2, §3, §4, §5
# Veronica persica (VERPE) = details: 21 DAT
# Experimental: as §1, §2, §3, §4, §5
# [7] = tested on: Abuthilon theophrasti (ABUTH); details: 21 DAT, rate (6) B7-4 120
# Experimental: as §1, §2, §3, §4, §5
# [8] = Lolium multiflorum, post-emergence, 240 h, read-out: % activity found
# [9] = Fallopia convolvulus, post-emergence, 504 h, read-out: % activity found
# [10] = Tripleurospermum inodorum, post-emergence, 504 h, read-out: % activity found
smiles,measurement,setting,value
"Cc1nn(C)c(O)c1C(=O)c1ccc(C(F)(F)F)cc1S(C)(=O)=O [B1-6, (5-hydroxy-1,3-dimethyl-1H-pyrazol-4-yl)[2-(methylsulfonyl)-4-(trifluoromethyl)phenyl]methanone]",inhibition at 8 g/ha,Avena fatua (AVEFA); 240 h,0%
same,inhibition at 8 g/ha,Avena fatua (AVEFA); 504 h,0%
same,inhibition at 24 g/ha,Zea mays (ZEAMX); 240 h,0%
same,inhibition at 24 g/ha,Zea mays (ZEAMX); 504 h,0%
same,inhibition at 8 g/ha,[1]; [8],0%
same,inhibition at 24 g/ha,[1]; [8],0%
same,inhibition at 8 g/ha,"[1]; Lolium multiflorum, post-emergence, 504 h, read-out: % activity found",0%
same,inhibition at 8 g/ha,[2]; [9],50%
same,inhibition at 24 g/ha,[2]; [9],60%
same,inhibition at 8 g/ha,[3]; [10],20%
same,inhibition at 24 g/ha,[3]; [10],30%
same,inhibition at 8 g/ha,Setaria viridis (SETVI),0%
same,inhibition at 24 g/ha,Setaria viridis (SETVI),0%
same,inhibition at 8 g/ha,Oryza sativa (ORYSA); 240 h,50%
same,inhibition at 8 g/ha,Oryza sativa (ORYSA); 504 h,40%
same,inhibition at 24 g/ha,Oryza sativa (ORYSA); 504 h,70%
same,inhibition at 8 g/ha,[4]; 240 h,0%
same,inhibition at 24 g/ha,[4]; 240 h,0%
same,inhibition at 8 g/ha,[4]; 504 h,0%
same,inhibition at 24 g/ha,[4]; 504 h,0%
"CCN(CC)C(=O)n1cnc(S(=O)(=O)c2c(C)cc(C)cc2C)n1 [B7-4, N,N-diethyl-3-[(2,4,6-trimethylphenyl)sulfonyl]-1H-1,2,4-triazole-1-carboxamide]",(7) activity found,[5]; rate (6) B7-4 40,20%
same,(7) activity found,[5]; rate (6) B7-4 120,20%
same,(7) activity found,Stellaria media (STEME); rate (6) B7-4 40,10%
same,(7) activity found,Stellaria media (STEME); rate (6) B7-4 120,10%
same,(7) activity found,Avena fatua (AVEFA); rate (6) B7-4 40 (Table 78),0%
same,(7) activity found,Avena fatua (AVEFA); rate (6) B7-4 40 (Table 79),0%
same,(7) activity found,Avena fatua (AVEFA); rate (6) B7-4 120,30%
same,(7) activity found,"[6]; 10 DAT, rate (6) B7-4 40",0%
same,(7) activity found,"[6]; 21 DAT, rate (6) B7-4 40",0%
same,(7) activity found,"[6]; 21 DAT, rate (6) B7-4 120",0%
same,(7) activity found,Viola tricolor (VIOTR); 10 DAT,0%
same,(7) activity found,Viola tricolor (VIOTR); 21 DAT,0%
same,(7) activity found,"Zea mays (ZEAMX); 10 DAT, rate (6) B7-4 40",10%
same,(7) activity found,"Zea mays (ZEAMX); 21 DAT, rate (6) B7-4 40",0%
same,(7) activity found,"Zea mays (ZEAMX); 21 DAT, rate (6) B7-4 120",0%
same,(7) activity found,[1]; rate (6) B7-4 40,0%
same,(7) activity found,[1]; rate (6) B7-4 120,40%
same,(7) activity found,Veronica persica (VERPE); rate (6) B7-4 40,0%
same,(7) activity found,Veronica persica (VERPE); rate (6) B7-4 120,0%
same,(7) activity found,[2]; rate (6) B7-4 40 (Table 82),30%
same,(7) activity found,[2]; rate (6) B7-4 40 (Table 83),30%
same,(7) activity found,[2]; rate (6) B7-4 120,50%
same,(7) activity found,[7],20%
same,(7) activity found,[3]; rate (6) B7-4 40,0%
same,(7) activity found,[3]; rate (6) B7-4 120,0%

# Source: US20100075852A1, “HERBICIDE COMBINATION COMPRISING DIMETHOXYTRIAZINYL-SUBSTITUTED DIFLUOROMETHANESULFONYLANILIDES” (BAYER CROPSCIENCE AG, priority 2008, published 2010)
